The molecules below were run against T1, LINE1 reverse transcriptase (Homo sapiens, UniProt O00370) (assay: Stable artificial-intron Cis LINE1 reporter assay (HeLa Tet-On 3G, Firefly luciferase)). Conditions: HeLa L1 artificial-intron reporter cells, doxycycline 500 ng/mL, 72 h, class symbols.
T1 construct: expressed in transfected cells; host or cells: HeLa Tet-On 3G (Takara, cat no 631183)
T1 sequence (O00370 whole entry, looked up): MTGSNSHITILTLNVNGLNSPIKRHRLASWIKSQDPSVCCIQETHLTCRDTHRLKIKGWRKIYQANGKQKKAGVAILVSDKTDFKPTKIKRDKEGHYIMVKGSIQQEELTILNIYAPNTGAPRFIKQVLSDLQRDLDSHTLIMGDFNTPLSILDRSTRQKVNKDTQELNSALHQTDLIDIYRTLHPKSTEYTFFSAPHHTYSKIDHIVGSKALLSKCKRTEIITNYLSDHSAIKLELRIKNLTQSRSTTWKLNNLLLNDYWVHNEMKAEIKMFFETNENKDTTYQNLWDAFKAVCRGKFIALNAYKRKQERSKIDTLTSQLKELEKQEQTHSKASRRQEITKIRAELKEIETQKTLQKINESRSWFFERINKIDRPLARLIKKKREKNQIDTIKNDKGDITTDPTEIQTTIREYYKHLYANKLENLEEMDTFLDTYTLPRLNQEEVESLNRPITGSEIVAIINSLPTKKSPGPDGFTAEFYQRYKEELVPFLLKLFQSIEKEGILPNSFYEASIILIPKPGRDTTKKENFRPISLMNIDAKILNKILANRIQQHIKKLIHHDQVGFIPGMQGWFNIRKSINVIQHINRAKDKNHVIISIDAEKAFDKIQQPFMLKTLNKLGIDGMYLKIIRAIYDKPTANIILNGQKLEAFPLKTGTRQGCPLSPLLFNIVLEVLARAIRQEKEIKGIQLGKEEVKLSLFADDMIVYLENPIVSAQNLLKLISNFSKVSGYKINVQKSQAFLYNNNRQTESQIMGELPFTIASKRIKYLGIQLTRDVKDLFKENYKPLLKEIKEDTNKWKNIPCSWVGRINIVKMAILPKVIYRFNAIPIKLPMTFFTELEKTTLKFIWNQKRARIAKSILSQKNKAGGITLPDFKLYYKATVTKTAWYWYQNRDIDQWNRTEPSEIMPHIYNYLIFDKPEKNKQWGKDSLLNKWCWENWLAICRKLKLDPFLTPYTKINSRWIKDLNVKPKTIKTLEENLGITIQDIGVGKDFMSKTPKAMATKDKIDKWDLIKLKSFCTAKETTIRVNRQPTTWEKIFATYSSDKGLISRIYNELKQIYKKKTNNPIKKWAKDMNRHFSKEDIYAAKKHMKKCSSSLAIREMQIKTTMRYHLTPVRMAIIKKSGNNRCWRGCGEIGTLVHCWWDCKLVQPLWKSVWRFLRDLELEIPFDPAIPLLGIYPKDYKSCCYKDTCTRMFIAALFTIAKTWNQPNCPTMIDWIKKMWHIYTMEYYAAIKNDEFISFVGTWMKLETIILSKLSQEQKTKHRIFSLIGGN
Assay type: cell-based
Procedure: Exemplary compounds, were tested for the ability to inhibit LINE1 reverse transcriptase using a stable artificial-intron Cis LINE1 reporter assay. Assay procedures and results are described below.
A stable HeLa Tet-On 3G (Takara, cat no 631183) cell line expressing a bi-directional inducible LINE1 construct was generated as described in Xie, Y. et al. “Cell division promotes efficient retrotransposition in a stable L1 reporter cell line,” Mobile DNA (2013) 4:10. Single cell clones were screened for high Luciferase expression and the highest expression Firefly expressing clone was chosen for compound testing.
Test compounds were serially diluted in DMSO and spotted in 96-well plates. Subsequently, the HeLa Li artificial-intron reporter cells were plated into the compound-containing wells (8,000 cells/well), and the cells were induced for reporter expression with doxycycline (Sigma-Aldrich cat #D9891) at a final concentration of 500 ng/mL. Luminescence was measured 72 h after plating using the Dual-Glo Luciferase Assay System (Promega cat #E2940) following the manufacturer's instructions. The Firefly Luciferase activity was used to report LINE1 activity.
In the case of `C#C[C@]1(CO)O[C@@H](n2cc(C)c(=O)[nH]c2=O)[C@@H](F)[C@@H]1O` [Compound 39, 1-((2R,3S,4R,5R)-5-ethynyl-3-fluoro-4-hydroxy-5-(hydroxymethyl)tetrahydrofuran-2-yl)-5-methylpyrimidine-2,4(1H,3H)-dione], the IC50 is reported as 250 to 1000 nM.
For `Nc1ccn([C@@H]2O[C@@](CO)(CCl)[C@@H](O)[C@@H]2O)c(=O)n1` [Compound 114, 4-amino-1-((2R,3S,4S,5R)-5-(chloromethyl)-3,4-dihydroxy-5-(hydroxymethyl)tetrahydrofuran-2-yl)pyrimidin-2(1H)-one], the IC50 was 100 to 250 nM.
Work on `Nc1nc2c(ncn2[C@@H]2O[C@@](CO)(CCl)[C@@H](O)[C@@H]2F)c(=O)[nH]1` [Compound 70, 2-amino-9-((2R,3S,4R,5R)-5-(chloromethyl)-3-fluoro-4-hydroxy-5-(hydroxymethyl)-tetrahydrofuran-2-yl)-1,9-dihydro-6H-purin-6-one] yielded an IC50 of over 1000 nM.
In the case of `CC(C)C(=O)OC[C@@]1(CCl)O[C@@H](n2cc(F)c(N)nc2=O)[C@@H](F)[C@@H]1OC(=O)C(C)C` [Compound 173, (2R,3R,4S,5R)-5-(4-amino-5-fluoro-2-oxopyrimidin-1(2H)-yl)-2-(chloromethyl)-4-fluoro-2-((isobutyryloxy)methyl)tetrahydrofuran-3-yl isobutyrate], the IC50 is reported as 250 to 1000 nM.
Work on `CC[C@]1(CO)O[C@@H](n2ccc(N)nc2=O)C[C@@H]1O` [Compound 44, 4-amino-1-((2R,4S,5R)-5-ethyl-4-hydroxy-5-(hydroxymethyl)tetrahydrofuran-2-yl)pyrimidin-2(1H)-one] yielded an IC50 of at most 50 nM.
Molecule `Nc1ccn([C@@H]2O[C@H](CO)[C@@H](O)C2(F)F)c(=O)n1` [Compound 111, 4-amino-1-((2R,4R,5R)-3,3-difluoro-4-hydroxy-5-(hydroxymethyl)tetrahydrofuran-2-yl)pyrimidin-2(1H)-one] has an IC50 of at most 50 nM.
`Cc1cn([C@H]2C[C@H](O)[C@](CO)(N=[N+]=[N-])O2)c(=O)[nH]c1=O` [Compound 30, 1-((2R,4S,5R)-5-azido-4-hydroxy-5-(hydroxymethyl)tetrahydrofuran-2-yl)-5-methylpyrimidine-2,4(1H,3H)-dione] was tested, and the IC50 was over 1000 nM.
With `Nc1nc(=O)n([C@@H]2O[C@@](CO)(CI)[C@@H](O)[C@@H]2F)cc1F` [Compound 129, 4-amino-5-fluoro-1-((2R,3S,4R,5R)-3-fluoro-4-hydroxy-5-(hydroxymethyl)-5-(iodomethyl)tetrahydrofuran-2-yl)pyrimidin-2(1H)-one] the IC50 was over 1000 nM.
In the case of `C[C@@H]1[C@H](n2ccc(N)nc2=O)O[C@@](CO)(CCl)[C@H]1O` [Compound 12, 4-amino-1-((2R,3S,4S,5R)-5-(chloromethyl)-4-hydroxy-5-(hydroxymethyl)-3-methyltetrahydrofuran-2-yl)pyrimidin-2(1H)-one], the IC50 is reported as 250 to 1000 nM.
With `CO[C@]1(CO)O[C@@H](n2ccc(N)nc2=O)C[C@@H]1O` [Compound 48, 4-amino-1-((2R,4S,5R)-4-hydroxy-5-(hydroxymethyl)-5-methoxytetrahydrofuran-2-yl)pyrimidin-2(1H)-one] the IC50 was 50 to 100 nM.
Molecule `Nc1nc(F)nc2c1ncn2[C@H]1C[C@H](O)[C@](CO)(CCl)O1` [Compound 8, (2R,3S,5R)-5-(6-amino-2-fluoro-9H-purin-9-yl)-2-(chloromethyl)-2-(hydroxymethyl)tetrahydrofuran-3-ol] has an IC50 of 100 to 250 nM.
`Cc1cn([C@@H]2O[C@@](CO)(CCl)[C@@H](O)[C@H]2F)c(=O)[nH]c1=O` [Compound 9, 1-((2R,3R,4R,5R)-5-(chloromethyl)-3-fluoro-4-hydroxy-5-(hydroxymethyl)tetrahydrofuran-2-yl)-5-methylpyrimidine-2,4(1H,3H)-dione] gave an IC50 of over 1000 nM.
`Nc1nc(=O)n([C@@H]2O[C@](/C=C\F)(CO)[C@@H](O)[C@@H]2F)cc1F` [Compound 123, 4-amino-5-fluoro-1-((2R,3S,4R,5R)-3-fluoro-5-((Z)-2-fluorovinyl)-4-hydroxy-5-(hydroxymethyl)tetrahydrofuran-2-yl)pyrimidin-2(1H)-one] gave an IC50 of 50 to 100 nM.
For `Nc1nc(=O)n([C@H]2C[C@H](O)[C@](CO)(C3CC3)O2)cc1F` [Compound 120, 4-amino-1-[(2R,4S,5R)-5-cyclopropyl-4-hydroxy-5-(hydroxymethyl)oxolan-2-yl]-5-fluoropyrimidin-2-one], the IC50 was 250 to 1000 nM.
For `Nc1nc(=O)n([C@@H]2O[C@@](CO)(CF)[C@@H](O)[C@@H]2O)cc1F` [Compound 72, 4-amino-5-fluoro-1-((2R,3S,4S,5R)-5-(fluoromethyl)-3,4-dihydroxy-5-(hydroxymethyl)tetrahydrofuran-2-yl)pyrimidin-2(1H)-one], the IC50 was 250 to 1000 nM.
Work on `C#C[C@]1(CO)O[C@@H](n2cc(F)c(N)nc2=O)[C@@H](F)[C@@H]1O` [Compound 112, 4-amino-1-((2R,3S,4R,5R)-5-ethynyl-3-fluoro-4-hydroxy-5-(hydroxymethyl)tetrahydrofuran-2-yl)-5-fluoropyrimidin-2(1H)-one] yielded an IC50 of at most 50 nM.
In the case of `C[C@@H]1[C@H](n2ccc(N)nc2=O)O[C@](C)(CO)[C@H]1O` [Compound 19, 4-amino-1-((2R,3S,4S,5R)-4-hydroxy-5-(hydroxymethyl)-3,5-dimethyltetrahydrofuran-2-yl)pyrimidin-2(1H)-one], the IC50 is reported as 250 to 1000 nM.
`C=C[C@]1(CO)O[C@@H](n2ccc(N)nc2=O)C[C@@H]1O` [Compound 43, 4-amino-1-((2R,4S,5R)-4-hydroxy-5-(hydroxymethyl)-5-vinyltetrahydrofuran-2-yl)pyrimidin-2(1H)-one] showed an IC50 of at most 50 nM.
Work on `Nc1ccn([C@H]2C[C@H](O)[C@](CO)(CC(F)(F)F)O2)c(=O)n1` [Compound 62, 4-amino-1-[(2R,4S,5R)-4-hydroxy-5-(hydroxymethyl)-5-(2,2,2-trifluoroethyl)oxolan-2-yl] pyrimidin-2-one] yielded an IC50 of 250 to 1000 nM.
With `C=C[C@]1(CO)O[C@@H](n2cnc3c(O)nc(N)nc32)C[C@@H]1O` [Compound 69, 2-amino-9-((2R,4S,5R)-4-hydroxy-5-(hydroxymethyl)-5-vinyltetrahydrofuran-2-yl)-1,9-dihydro-6H-purin-6-one] the IC50 was at most 50 nM.
`[N-]=[N+]=N[C@]1(CO)O[C@@H](c2ccc3c(N)ncnn23)C[C@@H]1O` [Compound 92, (2R,3S,5R)-5-(4-aminopyrrolo[2,1-f][1,2,4]triazin-7-yl)-2-azido-2-(hydroxymethyl)tetrahydrofuran-3-ol] was tested, and the IC50 was at most 50 nM.
`Nc1nc(=O)n([C@H]2C[C@H](O)[C@](CO)(CBr)O2)cc1F` [Compound 88, 4-amino-1-((2R,4S,5R)-5-(bromomethyl)-4-hydroxy-5-(hydroxymethyl)tetrahydrofuran-2-yl)-5-fluoropyrimidin-2(1H)-one] was tested, and the IC50 was at most 50 nM.

Same assay, conditions: HeLa L1 artificial-intron reporter cells, doxycycline 500 ng/mL, 72 h, numeric bounds
For `C#C[C@@H]1[C@H](n2ccc(N)nc2=O)O[C@@](CO)(CCl)[C@H]1O` [Compound 17, 4-amino-1-((2R,3S,4S,5R)-5-(chloromethyl)-3-ethynyl-4-hydroxy-5-(hydroxymethyl)tetrahydrofuran-2-yl)pyrimidin-2(1H)-one], the IC50 was over 30000 nM.
Molecule `Nc1nc(=O)n([C@@H]2O[C@@](CO)(C(F)(F)F)[C@@H](O)[C@@H]2O)cc1F` [Compound 95, 4-amino-1-((2R,3S,4S,5R)-3,4-dihydroxy-5-(hydroxymethyl)-5-(trifluoromethyl)tetrahydrofuran-2-yl)-5-fluoropyrimidin-2(1H)-one] has an IC50 of over 30000 nM.

From patent publication US20230295212A1 (ROME Therapeutics, Inc., priority 2022, published 2023)
